Tests used:
[1] = molecular target: Mitogen-activated protein kinase 14 (Homo sapiens, UniProt Q16539); assay: Inhibition of p38alpha
Homo sapiens = species on record: Homo sapiens; assay: Inhibition of LPS-induced TNFalpha production in human whole blood; type: functional, organism-based
[2] = Hepatocyte microsomal extraction ratio in human; settings: hepatic microsomes
Monocyte = assay: Inhibition of LPS-induced TNFalpha production in human monocytes; type: functional, cell-based
[3] = Hepatocyte extraction ratio in human; type: ADME, cell-based; settings: hepatocytes

Mitogen-activated protein kinase 14, sequence (Q16539 whole entry): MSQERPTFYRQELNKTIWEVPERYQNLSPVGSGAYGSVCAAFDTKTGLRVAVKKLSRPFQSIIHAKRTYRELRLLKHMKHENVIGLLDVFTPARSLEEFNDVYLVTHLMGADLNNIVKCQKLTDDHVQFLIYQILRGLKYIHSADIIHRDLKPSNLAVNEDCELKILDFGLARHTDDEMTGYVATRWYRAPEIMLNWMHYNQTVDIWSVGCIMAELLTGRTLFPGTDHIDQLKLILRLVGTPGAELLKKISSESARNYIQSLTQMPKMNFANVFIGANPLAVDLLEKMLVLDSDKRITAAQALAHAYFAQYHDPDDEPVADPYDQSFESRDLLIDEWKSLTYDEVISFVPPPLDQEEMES

Row | Structure (SMILES) | IC50 [1] [nM] | IC50 (Homo sapiens) [nM] | hepatic extraction ratio [2] | IC50 (Monocyte) [nM] | hepatic extraction ratio [3]
1 | CC(C)c1nnc2ccc(-c3ocnc3-c3c(F)cc(F)cc3F)cn12 | 7.2 | 650 | < 0.3 | 60 | 
2 | CC(C)c1nnc2ccc(-c3ocnc3-c3ccc(Cl)cc3Cl)cn12 | 8.3 |  | < 0.3 | 30 | 
3 | Fc1ccc(-c2ncoc2-c2ccc3nnc(C4CCC4)n3c2)cc1 | 17.7 |  |  | 49 | > 0.5
4 | CCN(C)c1nnc2ccc(-c3ocnc3-c3ccc(F)cc3)cn12 | 4.7 | 1550 |  | 34.6 | 
5 | Fc1cc(F)c(-c2ncoc2-c2ccc3nnc(C4CC4)n3c2)cc1F | 7.8 | 565 | < 0.3 | 40 | 
6 | CC(C)(C)c1nnc2ccc(-c3ocnc3-c3cc(F)ccc3F)cn12 | 8.8 | 220 | < 0.3 | 14.1 | 
7 | Fc1ccc(-c2ncoc2-c2ccc3nnc(C4CC4)n3c2)c(F)c1 | 3.5 | 910 |  | 45.8 | 
8 | Fc1ccc(-c2ncoc2-c2ccc3nnc(N4CCOCC4)n3c2)cc1 | 11.8 |  | < 0.3 | 1440 | 
9 | CC1(c2nnc3ccc(-c4ocnc4-c4cc(F)c(F)cc4F)cn23)CCC1 | 2.5 | 90 |  | 10 | 
10 | c1ccc(-c2ncoc2-c2ccc3nnc(-c4ccno4)n3c2)cc1 | 285 |  |  | > 2000 | 
11 | Fc1ccc(F)c(-c2ncoc2-c2ccc3nnc(C4CC4)n3c2)c1 | 24 | 1400 | < 0.3 | 31.6 | 
12 | Fc1ccc(F)c(-c2ncoc2-c2ccc3nnc(C4CCC4)n3c2)c1 | 9.7 |  |  | 60 | 
13 | CCc1nnc2ccc(-c3ocnc3-c3ccccc3)cn12 | 54.5 |  |  | 672 | > 0.5
14 | CC1(c2nnc3ccc(-c4ocnc4-c4cc(F)c(F)cc4F)cn23)CC1 | 2.3 | 263 | < 0.3 | 28.3 | 
15 | Fc1ccc(-c2ncoc2-c2ccc3nnc(Cc4ccccc4)n3c2)cc1 | 19.9 |  |  | > 1000 | 
16 | CC1(c2nnc3ccc(-c4ocnc4-c4cc(F)ccc4F)cn23)CC1 | 3 | 385 | < 0.3 | 45.8 | 
17 | CC(C)(O)c1nnc2ccc(-c3ocnc3-c3cc(F)ccc3F)cn12 | 25 | 1400 |  | 200 | 
18 | Fc1cc(F)c(-c2ncoc2-c2ccc3nnc(C4CCC4)n3c2)cc1F | 9.1 | 353 |  | 50 | 
19 | Cc1cccc(-c2ncoc2-c2ccc3nnc(C(C)C)n3c2)c1 | 18.3 |  |  | 24.5 | 
20 | COc1ccccc1-c1nnc2ccc(-c3ocnc3-c3ccc(F)cc3)cn12 | 0.4 | 873 |  | 10 | 
21 | CCCNc1nnc2ccc(-c3ocnc3-c3ccc(F)cc3)cn12 | 198 |  |  |  | 
22 | Fc1ccc(-c2ncoc2-c2ccc3nnc(C4CCC4)n3c2)c(F)c1 | 3.75 |  |  | 40 | > 0.5
23 | CC(C)(C)c1nnc2ccc(-c3ocnc3-c3ccc(F)cc3)cn12 | 3.5 | 470 | < 0.3 | 38.7 | 
24 | CC1(c2nnc3ccc(-c4ocnc4-c4ccc(F)cc4F)cn23)CCC1 | 1.1 | 77 |  | 10 | 
25 | CC(C)c1nnc2ccc(-c3ocnc3-c3ccc(Cl)c(F)c3)cn12 | 43.2 |  |  | 266 | 
26 | CC1(c2nnc3ccc(-c4ocnc4-c4ccc(F)cc4)cn23)CCC1 | 14 |  |  | 40 | > 0.5
27 | Fc1ccc(-c2ncoc2-c2ccc3nncn3c2)cc1 | 19.5 |  | < 0.3 | > 5000 | 
28 | CN(C)c1nnc2ccc(-c3ocnc3-c3ccc(F)cc3)cn12 | 15.3 |  |  | 165 | > 0.5
29 | CC1(c2nnc3ccc(-c4ocnc4-c4cc(F)ccc4F)cn23)CCC1 | 1.5 |  |  | 10 | 

Further lines, results first:

Row | IC50 [1] [nM] | IC50 (Homo sapiens) [nM] | hepatic extraction ratio [2] | IC50 (Monocyte) [nM] | hepatic extraction ratio [3] | Structure (SMILES)
30 | 26.4 |  |  | 148 |  | CC(C)c1nnc2ccc(-c3ocnc3-c3ccc(Cl)c(Cl)c3)cn12
31 | 14.6 |  | < 0.3 | 71.1 |  | CC(C)c1nnc2ccc(-c3ocnc3-c3c(F)cccc3F)cn12
32 | 5.1 | 190 |  | 10 |  | CC(C)c1nnc2ccc(-c3ocnc3-c3cc(Cl)ccc3F)cn12
33 | 3 | 937 |  | 57.4 |  | CC(C)c1nnc2ccc(-c3ocnc3-c3ccccc3Cl)cn12
34 | 8.8 |  |  | 70 |  | CC(C)Cc1nnc2ccc(-c3ocnc3-c3ccc(F)cc3)cn12
35 | 83.2 |  |  | 915 | > 0.5 | FC(F)(F)Cc1nnc2ccc(-c3ocnc3-c3ccccc3)cn12
36 | 5.5 |  |  | 31.6 |  | CC(C)Nc1nnc2ccc(-c3ocnc3-c3ccc(F)cc3)cn12
37 | 544 |  |  |  |  | FC(F)c1nnc2ccc(-c3ocnc3-c3ccccc3)cn12
38 | 4.3 |  |  | 10 | > 0.5 | Cc1ccc(F)c(-c2ncoc2-c2ccc3nnc(C(C)C)n3c2)c1
39 | 4.1 |  | < 0.3 | 480 |  | CC(C)c1nnc2ccc(-c3ocnc3-c3cc(F)c(F)c(F)c3)cn12
40 | 17.9 |  |  | 470 |  | CC(C)Oc1nnc2ccc(-c3ocnc3-c3ccc(F)cc3)cn12
41 | 21.6 |  |  | 630 |  | CCc1nnc2ccc(-c3ocnc3-c3ccc(F)cc3)cn12
42 | 5.6 |  | < 0.3 | 54.8 |  | CC(C)c1nnc2ccc(-c3ocnc3-c3cc(F)c(F)cc3Cl)cn12
43 | 16.6 |  |  | 69.3 |  | c1ccc(-c2ncoc2-c2ccc3nnc(C4CCC4)n3c2)cc1
44 | 9.2 |  |  | 80 | > 0.5 | CCN(C)c1nnc2ccc(-c3ocnc3-c3ccccc3)cn12
45 | 17.7 |  |  | 70 |  | CC(C)c1nnc2ccc(-c3ocnc3-c3ccc(Cl)cc3)cn12
46 | 14.5 |  | < 0.3 | 57.4 |  | CC(C)c1nnc2ccc(-c3ocnc3-c3cccc(Cl)c3Cl)cn12
47 | 22.3 |  |  | 49 |  | CC(C)c1nnc2ccc(-c3ocnc3-c3ccc(F)c(F)c3)cn12
48 | 24.5 |  | < 0.3 | 60 |  | CC(C)c1nnc2ccc(-c3ocnc3-c3cc(F)c(Cl)cc3F)cn12
49 | 83.3 |  | < 0.3 | 490 |  | CC(C)c1nnc2ccc(-c3ocnc3-c3cc(F)cc(F)c3F)cn12
50 | 37.8 |  |  | 135 | > 0.5 | CC(C)c1nnc2ccc(-c3ocnc3-c3cccc(F)c3)cn12
51 | 55.5 |  |  | 360 |  | CCOc1nnc2ccc(-c3ocnc3-c3ccc(F)cc3)cn12
52 | 11.1 |  |  | 57.4 |  | CC(C)c1nnc2ccc(-c3ocnc3-c3ccc(F)c(F)c3F)cn12
53 | 47.2 |  |  | 150 | > 0.5 | c1ccc(-c2ncoc2-c2ccc3nnc(C4CC4)n3c2)cc1
54 | 8 |  | < 0.3 | 122 |  | CC(C)c1nnc2ccc(-c3ocnc3-c3ccc(F)c(Br)c3)cn12
